Source: PubChem BioAssay AID2060500 (Molecular Pharmacology Branch, DTP, NCI, 2025)
pIC50: −log10 of the molar value.

Tested on: 596521-263-R-J1-PDC complex spheroids, viability % of control
Assay: Anticancer human tumor 596521-263-R-J1-PDC patient-derived soft tissue sarcoma cell line growth inhibition [GQUAD]
Conditions: for pIC50: curve of first compound; for viability, T/C: stronger effect = lower value
From the text: DNA G-quadruplex Stabilizer Agents in Combinations in Complex Spheroids
A high-throughput screen of multi-cell type tumor spheroids was designed to identify active combinations of DNA G-quadruplex stabilizer agents and targeted small molecules. Complex spheroids include a stromal component modeled by human endothelial cells (HUVEC) and fibroblasts modeled by human mesenchymal stem cells (MSCs). The concentration ranges selected for each drug and investigational agent were based upon clinically achievable concentrations if the clinical Cmax of the agent was known.
Compounds. The drugs and investigational agents: pidnarulex (CX-5461; NSC782164), APTO-253 (NSC789042), BRACO-19 (NSC847499), peposertib (NSC802822), ceralasertib (NSC780249), elimusertib (NSC800525), camonsertib (NSC841442), AZD-1390 (NSC803789), olaparib (NSC753686), talazoparib (NSC767125), ART-558 (NSC835418), sotorasib (NSC818433), MRTX-1133 (NSC836407), SN-38 (NSC673596), topotecan (NSC609699), etoposide (NSC141540), doxorubicin (NSC123127), gemcitabine (NSC613327), 5-fluorouracil (NSC19893), paclitaxel (NSC125973), vemurafenib (NSC761431), panobinostat (NSC761190), R-306465 (JNJ-16241199; NSC773264), adavosertib (NSC754352), TP-3654 (NSC805149), carboplatin (NSC241240), KSQ-4279 (NSC840948), and staurosporine (NSC755774) were obtained from the National Cancer Institute (NCI) Developmental Therapeutics Program Chemical Repository (34). The FDA-approved anticancer drug set is available from the NCI Developmental Therapeutics Program. […] The stock solutions were prepared in dimethyl sulfoxide (DMSO, Sigma-Aldrich, St. Louis, MO, cat. D2650) at 800-fold the tested concentration and stored at -70 degrees C prior to their use. All drugs and investigational agents were tested over a range starting from a high concentration at or near the clinical Cmax and decreasing in half-log increments. If the clinical Cmax for an agent had not been determined, the highest concentration tested was 10 microM.
2.3 Cell Culture. All cells were maintained in an incubator at 37 degrees C and 5% CO2 with 95% humidity. The PDC lines were cultured according to standard operating procedures established by the NCI PDMR. All PDCs were thawed and cultured in Matrigel-coated flasks prepared with a working solution of 1X Ham's F-12 nutrient mix, without supplementation (Invitrogen, cat. 11765054), 100 U/mL penicillin-streptomycin (Invitrogen, cat. 15140122), and 2.5% Matrigel (Corning Inc., cat. 354248) for the first three passages. The 857933-349-R-J2-PDC line was cultured in 6C/Colon 1B media, which includes advanced DMEM/F-12 (Thermo Fisher Scientific, cat. 12634028), 10 mM HEPES (Thermo Fisher Scientific, cat. 15630080), 1X GlutaMAX supplement (Thermo Fisher Scientific, cat. 35050061), 0.1 mg/mL primocin (InvivoGen, cat. ant-pm-2), 10% defined fetal bovine serum, heat inactivated (HyClone Laboratories Inc., cat. SH30070.03HI), 50% L-WRN conditioned media (ATCC, cat. CRL-3276), 1.25 mM N-Acetyl-L-cysteine (Sigma-Aldrich, cat. A9165), 10 mM nicotinamide (Sigma-Aldrich, cat. N0636), 1X B-27 supplement (Thermo Fisher Scientific, cat. 17504044), 1X N-2 supplement (Thermo Fisher Scientific, cat. 17502048), 10 microM Y-27632 dihydrochloride (Tocris Bioscience, cat. 1254), and 50 ng/mL human EGF recombinant protein (Thermo Fisher Scientific, cat. PHG0311). The 485176-168-R4-J1-PDC line was cultured in Panc media, which includes all 6C/Colon 1B media components plus 100 ng/mL human FGF-10 (Thermo Fisher Scientific, cat. 100-26), 500 nM SB-431542 (Selleckchem, cat. S1067), and gastrin (Tocris, cat. 3006).
[…]

[1] = second compound 0.0316 µM, first compound 0.0316 µM
[2] = second compound 0.0316 µM, first compound 0.1 µM
[3] = second compound 0.0316 µM, first compound 0.316 µM
[4] = second compound 0.0316 µM, first compound 1 µM
[5] = second compound 0.0316 µM, first compound 3.16 µM
[6] = second compound 0.0316 µM, first compound 10 µM
[7] = second compound 0.1 µM, first compound 0.0316 µM
[8] = second compound 0.1 µM, first compound 0.1 µM
[9] = second compound 0.1 µM, first compound 0.316 µM
[10] = second compound 0.1 µM, first compound 1 µM
[11] = second compound 0.1 µM, first compound 3.16 µM
[12] = second compound 0.1 µM, first compound 10 µM
[13] = second compound 0.316 µM, first compound 0.0316 µM
[14] = second compound 0.316 µM, first compound 0.1 µM
[15] = second compound 0.316 µM, first compound 0.316 µM
[16] = second compound 0.316 µM, first compound 1 µM
[17] = second compound 0.316 µM, first compound 3.16 µM
[18] = second compound 0.316 µM, first compound 10 µM
[19] = second compound 1 µM, first compound 0.0316 µM
[20] = second compound 1 µM, first compound 0.1 µM
[21] = second compound 1 µM, first compound 0.316 µM
[22] = second compound 1 µM, first compound 1 µM
[23] = second compound 1 µM, first compound 3.16 µM
[24] = second compound 1 µM, first compound 10 µM
[25] = second compound 3.16 µM, first compound 0.0316 µM
[26] = second compound 3.16 µM, first compound 0.1 µM
[27] = second compound 3.16 µM, first compound 0.316 µM
[28] = second compound 3.16 µM, first compound 1 µM
[29] = second compound 3.16 µM, first compound 3.16 µM
[30] = second compound 3.16 µM, first compound 10 µM
[31] = second compound 10 µM, first compound 0.0316 µM
[32] = second compound 10 µM, first compound 0.1 µM
[33] = second compound 10 µM, first compound 0.316 µM
[34] = second compound 10 µM, first compound 1 µM
[35] = second compound 10 µM, first compound 3.16 µM
[36] = second compound 10 µM, first compound 10 µM
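Note: spheroids exposed to drugs for 7 days before viability reading.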

## CC1COCCN1c1cc(C2(O)CC3CCC(C2)O3)c2cnn(-c3ccn[nH]3)c2n1 (centres undefined) + Cc1[nH]c2ccc(F)cc2c1-c1nc2c3cccnc3c3ncccc3c2[nH]1
Second compound 0.0316 µM
  pIC50: 6.55
Second compound 0.1 µM
  pIC50: 6.57
Second compound 0.316 µM
  pIC50: 6.68
Second compound 1 µM
  pIC50: 6.49
Second compound 3.16 µM
  pIC50: 6.63
Second compound 10 µM
  pIC50: 6.88
[1]
  viability, T/C: 68.8%
[2]
  viability, T/C: 56.8%
[3]
  viability, T/C: 52.6%
[4]
  viability, T/C: 32.8%
[5]
  viability, T/C: 23%
[6]
  viability, T/C: 12.4%
[7]
  viability, T/C: 77.5%
[8]
  viability, T/C: 60.1%
[9]
  viability, T/C: 48.9%
[10]
  viability, T/C: 35.1%
[11]
  viability, T/C: 25.6%
[12]
  viability, T/C: 14.6%
[13]
  viability, T/C: 64.8%
[14]
  viability, T/C: 54.1%
[15]
  viability, T/C: 48.8%
[16]
  viability, T/C: 34.2%
[17]
  viability, T/C: 25.3%
[18]
  viability, T/C: 13.1%
[19]
  viability, T/C: 72.4%
[20]
  viability, T/C: 62.7%
[21]
  viability, T/C: 52%
[22]
  viability, T/C: 33.8%
[23]
  viability, T/C: 25.6%
[24]
  viability, T/C: 16.1%
[25]
  viability, T/C: 63.9%
[26]
  viability, T/C: 59.4%
[27]
  viability, T/C: 47%
[28]
  viability, T/C: 32.2%
[29]
  viability, T/C: 26%
[30]
  viability, T/C: 14.9%
[31]
  viability, T/C: 54.4%
[32]
  viability, T/C: 55%
[33]
  viability, T/C: 42.4%
[34]
  viability, T/C: 27.6%
[35]
  viability, T/C: 25.3%
[36]
  viability, T/C: 14.2%

## COc1ncnc(C2CC2)c1-c1ncc2cnn(Cc3ccc(-c4nc(C(F)(F)F)cn4C(C)C)cc3)c2n1 + CN(C)c1ccc(Nc2c3ccc(NC(=O)CCN4CCCC4)cc3nc3cc(NC(=O)CCN4CCCC4)ccc23)cc1
Second compound 0.0316 µM
  pIC50: < 5.00
Second compound 0.1 µM
  pIC50: < 5.00
Second compound 0.316 µM
  pIC50: < 5.00
Second compound 1 µM
  pIC50: < 5.00
Second compound 3.16 µM
  pIC50: < 5.00
Second compound 10 µM
  pIC50: 5.42
[1]
  viability, T/C: 94.8%
[2]
  viability, T/C: 100%
[3]
  viability, T/C: 92.2%
[4]
  viability, T/C: 104%
[5]
  viability, T/C: 90.9%
[6]
  viability, T/C: 97.2%
[7]
  viability, T/C: 103%
[8]
  viability, T/C: 94.7%
[9]
  viability, T/C: 98.4%
[10]
  viability, T/C: 89.8%
[11]
  viability, T/C: 98.6%
[12]
  viability, T/C: 93.5%
[13]
  viability, T/C: 103%
[14]
  viability, T/C: 99.2%
[15]
  viability, T/C: 101%
[16]
  viability, T/C: 106%
[17]
  viability, T/C: 104%
[18]
  viability, T/C: 105%
[19]
  viability, T/C: 95.4%
[20]
  viability, T/C: 92.5%
[21]
  viability, T/C: 93.5%
[22]
  viability, T/C: 81.1%
[23]
  viability, T/C: 108%
[24]
  viability, T/C: 88.3%
[25]
  viability, T/C: 89.9%
[26]
  viability, T/C: 106%
[27]
  viability, T/C: 87.9%
[28]
  viability, T/C: 108%
[29]
  viability, T/C: 86.6%
[30]
  viability, T/C: 72.6%
[31]
  viability, T/C: 63%
[32]
  viability, T/C: 57.7%
[33]
  viability, T/C: 63.8%
[34]
  viability, T/C: 57%
[35]
  viability, T/C: 52%
[36]
  viability, T/C: 38.4%
